We go through 24 molecules from patent publication US12624044B2, “SMARCA degraders and uses thereof” (Kymera Therapeutics, Inc., priority 2019, dated 2026).

What is called Dmax is the greatest extent of degradation seen. As a reminder, the DC50 is the concentration at which degradation of the target reaches its halfway point.

Where a name gives a salt, the structure may show the parent alone. A value given as a limit tells only on which side of the number the result lay.

The experiment has as its target SMARCA2 (Homo sapiens, UniProt P51531). As to the kind of experiment: MSD SMARCA2 degradation in NCI-H1299 cell line (24 h). Details: HC: NCI-H1299 cells treated with DMSO; host or cells: NCI-H1299. As to conditions: for Dmax: NCI-H1299, NCI-H1299 cells; for DC50: NCI-H1299 cells, read-out: SMARCA2 MSD H1299 degradation 24 h: External Abs-DC50. Format: cell-based. Put shortly: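 SMARCA2 measured by MSD electrochemiluminescence (primary 0.3 ug/ml, secondary 1 ug/ml) on lysates from NCI-H1299 cells exposed to compounds for 24 h across nine 3-fold dilutions. Signal scaled from A2780 cells (no SMARCA2) to DMSO-treated H1299 controls, and maximal degradation after 24 h reported in letter categories.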

SMARCA2, sequence (P51531 whole entry): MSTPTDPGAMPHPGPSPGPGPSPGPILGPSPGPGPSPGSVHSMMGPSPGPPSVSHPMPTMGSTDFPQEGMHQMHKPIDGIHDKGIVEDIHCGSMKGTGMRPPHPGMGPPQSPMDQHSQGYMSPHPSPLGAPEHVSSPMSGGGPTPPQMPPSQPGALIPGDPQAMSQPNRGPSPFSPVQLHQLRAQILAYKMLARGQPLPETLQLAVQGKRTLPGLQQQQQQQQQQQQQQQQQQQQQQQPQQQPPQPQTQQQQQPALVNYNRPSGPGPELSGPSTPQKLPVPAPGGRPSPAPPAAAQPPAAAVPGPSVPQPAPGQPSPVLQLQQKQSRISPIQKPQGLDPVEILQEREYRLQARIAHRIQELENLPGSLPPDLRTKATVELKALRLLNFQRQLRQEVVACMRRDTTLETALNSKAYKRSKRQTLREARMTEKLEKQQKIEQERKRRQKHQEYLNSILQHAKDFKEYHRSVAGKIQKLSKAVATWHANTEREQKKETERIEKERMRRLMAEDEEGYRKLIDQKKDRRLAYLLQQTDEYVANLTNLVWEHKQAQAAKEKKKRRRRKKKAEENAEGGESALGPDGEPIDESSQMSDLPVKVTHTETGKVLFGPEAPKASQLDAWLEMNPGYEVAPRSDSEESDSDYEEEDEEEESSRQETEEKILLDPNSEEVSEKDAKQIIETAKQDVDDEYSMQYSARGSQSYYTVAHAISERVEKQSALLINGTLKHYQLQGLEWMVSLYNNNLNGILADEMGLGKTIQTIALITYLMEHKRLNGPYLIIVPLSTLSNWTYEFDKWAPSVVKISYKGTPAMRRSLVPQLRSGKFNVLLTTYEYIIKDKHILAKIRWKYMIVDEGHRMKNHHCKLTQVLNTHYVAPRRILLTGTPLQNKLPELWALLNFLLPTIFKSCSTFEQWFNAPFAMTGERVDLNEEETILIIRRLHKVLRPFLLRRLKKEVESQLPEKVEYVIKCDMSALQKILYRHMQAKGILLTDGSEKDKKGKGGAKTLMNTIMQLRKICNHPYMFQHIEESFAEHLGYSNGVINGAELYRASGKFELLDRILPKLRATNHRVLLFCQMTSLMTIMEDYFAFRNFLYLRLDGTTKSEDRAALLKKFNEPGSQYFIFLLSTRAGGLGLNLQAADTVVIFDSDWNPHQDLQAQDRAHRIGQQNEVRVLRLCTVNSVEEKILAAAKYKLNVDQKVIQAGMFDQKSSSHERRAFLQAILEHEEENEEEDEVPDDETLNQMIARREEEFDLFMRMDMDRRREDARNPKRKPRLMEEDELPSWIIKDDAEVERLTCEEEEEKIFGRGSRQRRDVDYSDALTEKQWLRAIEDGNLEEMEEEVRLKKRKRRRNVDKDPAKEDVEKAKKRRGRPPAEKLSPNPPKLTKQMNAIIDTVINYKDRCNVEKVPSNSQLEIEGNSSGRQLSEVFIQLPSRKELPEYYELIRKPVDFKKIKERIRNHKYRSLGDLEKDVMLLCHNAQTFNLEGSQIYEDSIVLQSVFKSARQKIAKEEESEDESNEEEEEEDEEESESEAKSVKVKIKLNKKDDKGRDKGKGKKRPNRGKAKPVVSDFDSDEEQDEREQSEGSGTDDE

On to `Cc1ncsc1-c1ccc(CNC(=O)[C@@H]2C[C@@H](O)CN2C(=O)[C@@H](NC(=O)CCCCCCCCCN2CCC(Cn3cc(-c4cc(-c5ccccc5O)nnc4N)cn3)CC2)C(C)(C)C)cc1` [I-214], for which the greatest degradation seen (Dmax) is > 90% and the half-maximal degradation concentration (DC50) was in the range of 501 to 1000 nM. Consider `Cc1ncsc1-c1ccc(CNC(=O)[C@@H]2C[C@@H](O)CN2C(=O)[C@@H](NC(=O)CCCCCN2CCC(Cn3cc(-c4cc(-c5ccccc5O)nnc4N)cn3)CC2)C(C)(C)C)cc1` [I-215, (2S,4R)-1-((S)-2-(6-(4-((4-(3-amino-6-(2-hydroxyphenyl)pyridazin-4-yl)-1H-pyrazol-1-yl)methyl)piperidin-1-yl)hexanamido)-3,3-dimethylbutanoyl)-4-hydroxy-N-(4-(4-methylthiazol-5-yl)benzyl)pyrrolidine-2-carboxamide], for which the Dmax is < 50% and the half-maximal degradation concentration (DC50) was > 1000 nM. With `Cc1ncsc1-c1ccc(CNC(=O)[C@@H]2C[C@@H](O)CN2C(=O)[C@@H](NC(=O)CCCCCCCN(C)Cc2ccc(N3CCN(c4cc(-c5ccccc5O)nnc4N)CC3)cc2)C(C)(C)C)cc1` [I-216], the Dmax was 70 to 90% and the DC50 is 501 to 1000 nM.

For `Cc1ncsc1-c1ccc(CNC(=O)[C@@H]2C[C@@H](O)CN2C(=O)[C@@H](NC(=O)CCCCCCCN2CCC(Cn3cc(-c4cc(-c5ccccc5O)nnc4N)cn3)CC2)C(C)(C)C)cc1` [I-217], the maximal degradation (Dmax) was > 90% and the DC50 was > 1000 nM. For the molecule `Cc1ncsc1-c1ccc(CNC(=O)[C@@H]2C[C@@H](O)CN2C(=O)[C@@H](NC(=O)COCCOCCOCCNC(=O)CCCOc2cccc(N3C[C@H]4C[C@@H]3CN4/C=C/C(=O)c3ccccc3O)n2)C(C)(C)C)cc1` [I-218], the half-maximal degradation concentration (DC50) is > 1000 nM.

Regarding `Cc1ncsc1-c1ccc(CNC(=O)[C@@H]2C[C@@H](O)CN2C(=O)[C@@H](NC(=O)COCCOCCOCCNC(=O)CCCCCCCCOc2ccnc(N3C[C@H]4C[C@@H]3CN4/C=C/C(=O)c3ccccc3O)c2)C(C)(C)C)cc1` [I-220], the DC50 was > 1000 nM.

Turning to `Cc1ncsc1-c1ccc(CNC(=O)[C@@H]2C[C@@H](O)CN2C(=O)[C@@H](NC(=O)COCCOCCOCCOCCOCCOCCNC(=O)CCCCCCCCOc2ccnc(N3C[C@H]4C[C@@H]3CN4/C=C/C(=O)c3ccccc3O)c2)C(C)(C)C)cc1` [I-221], the DC50 is > 1000 nM. Take `Cc1ncsc1-c1ccc(CNC(=O)[C@@H]2C[C@@H](O)CN2C(=O)[C@@H](NC(=O)COCCOCCOCCOCCOCCNC(=O)CCCCCCCCOc2ccnc(N3C[C@H]4C[C@@H]3CN4/C=C/C(=O)c3ccccc3O)c2)C(C)(C)C)cc1` [I-222]: the DC50 was > 1000 nM.

Regarding `Cc1ncsc1-c1ccc(CNC(=O)[C@@H]2C[C@@H](O)CN2C(=O)[C@@H](NC(=O)COCCOCCOCCOCCNC(=O)CCCCCCCCOc2ccnc(N3C[C@H]4C[C@@H]3CN4/C=C/C(=O)c3ccccc3O)c2)C(C)(C)C)cc1` [I-223], the half-maximal degradation concentration (DC50) is > 1000 nM. `Cc1ncsc1-c1ccc(CNC(=O)[C@@H]2C[C@@H](O)CN2C(=O)[C@@H](NC(=O)COCCOCCOCCNC(=O)c2ccc(C(C)n3cc(-c4cc(-c5ccccc5O)nnc4N)cn3)cc2)C(C)(C)C)cc1` (stereo partly shown) [I-224]: the DC50 is > 1000 nM. For the molecule `Cc1ncsc1-c1ccc(CNC(=O)[C@@H]2C[C@@H](O)CN2C(=O)[C@@H](NC(=O)COCCOCCOCCOCCOCCOCCNC(=O)c2ccc(C(C)n3cc(-c4cc(-c5ccccc5O)nnc4N)cn3)cc2)C(C)(C)C)cc1` (stereo partly shown) [I-225], the DC50 is > 1000 nM. For `Cc1ncsc1-c1ccc(CNC(=O)[C@@H]2C[C@@H](O)CN2C(=O)[C@@H](NC(=O)COCCOCCOCCOCCOCCNC(=O)c2ccc(C(C)n3cc(-c4cc(-c5ccccc5O)nnc4N)cn3)cc2)C(C)(C)C)cc1` (stereo partly shown) [I-226], the DC50 is > 1000 nM. For the molecule `Cc1ncsc1-c1ccc(CNC(=O)[C@@H]2C[C@@H](O)CN2C(=O)[C@@H](NC(=O)COCCOCCOCCOCCNC(=O)c2ccc(C(C)n3cc(-c4cc(-c5ccccc5O)nnc4N)cn3)cc2)C(C)(C)C)cc1` (stereo partly shown) [I-227], the DC50 is > 1000 nM.

As for `Cc1ncsc1-c1ccc(CNC(=O)[C@@H]2C[C@@H](O)CN2C(=O)[C@@H](NC(=O)COCCOCCOCCNC(=O)CCCCCCCCOc2ccc(N3C[C@H]4C[C@@H]3CN4/C=C/C(=O)c3ccccc3O)nc2)C(C)(C)C)cc1` [I-228], the 50% degradation concentration (DC50) was > 1000 nM. As to `Cc1ncsc1-c1ccc(CNC(=O)[C@@H]2C[C@@H](O)CN2C(=O)[C@@H](NC(=O)COCCOCCOCCOCCOCCOCCNC(=O)CCCCCCCCOc2ccc(N3C[C@H]4C[C@@H]3CN4/C=C/C(=O)c3ccccc3O)nc2)C(C)(C)C)cc1` [I-229], the DC50 was > 1000 nM.

As for `Cc1ncsc1-c1ccc(CNC(=O)[C@@H]2C[C@@H](O)CN2C(=O)[C@@H](NC(=O)COCCOCCOCCOCCOCCNC(=O)CCCCCCCCOc2ccc(N3C[C@H]4C[C@@H]3CN4/C=C/C(=O)c3ccccc3O)nc2)C(C)(C)C)cc1` [I-230], the DC50 was > 1000 nM. Consider `Cc1ncsc1-c1ccc(CNC(=O)[C@@H]2C[C@@H](O)CN2C(=O)[C@@H](NC(=O)COCCOCCOCCOCCNC(=O)CCCCCCCCOc2ccc(N3C[C@H]4C[C@@H]3CN4/C=C/C(=O)c3ccccc3O)nc2)C(C)(C)C)cc1` [I-231], for which the half-maximal degradation concentration (DC50) was > 1000 nM.

Regarding `COc1cc(C(=O)NCCCN2CCN(Cc3ccc(-c4cc(-c5ccccc5O)nnc4N)cc3)CC2)ccc1NC(=O)[C@@H]1N[C@@H](CC(C)(C)C)[C@](C#N)(c2ccc(Cl)cc2F)[C@H]1c1cccc(Cl)c1F` [I-232, (2R,3S,4R,5S)—N-(4-((3-(4-(4-(3-amino-6-(2-hydroxyphenyl)pyridazin-4-yl)benzyl)piperazin-1-yl)propyl)carbamoyl)-2-methoxyphenyl)-3-(3-chloro-2-fluorophenyl)-4-(4-chloro-2-fluorophenyl)-4-cyano-5-neopentylpyrrolidine-2-carboxamide], the greatest degradation seen (Dmax) is < 50% and the DC50 is > 1000 nM.

`COc1cc(C(=O)NCCCCCCCCCN2CCN(Cc3ccc(-c4cc(-c5ccccc5O)nnc4N)cc3)CC2)ccc1NC(=O)[C@@H]1N[C@@H](CC(C)(C)C)[C@](C#N)(c2ccc(Cl)cc2F)[C@H]1c1cccc(Cl)c1F` [I-233, (2R,3S,4R,5S)—N-[4-[9-[4-[[4-[3-amino-6-(2-hydroxyphenyl)pyridazin-4-yl]phenyl]methyl]piperazin-1-yl]nonylcarbamoyl]-2-methoxy-phenyl]-3-(3-chloro-2-fluoro-phenyl)-4-(4-chloro-2-fluoro-phenyl)-4-cyano-5-(2,2-dimethylpropyl)pyrrolidine-2-carboxamide]: the Dmax is < 50% and the 50% degradation concentration (DC50) is > 1000 nM. On to `COc1cc(C(=O)NCCCCCCCCCCCNCc2ccc(N3CCN(c4cc(-c5ccccc5O)nnc4N)CC3)cc2)ccc1NC(=O)[C@@H]1N[C@@H](CC(C)(C)C)[C@](C#N)(c2ccc(Cl)cc2F)[C@H]1c1cccc(Cl)c1F` [I-234], for which the Dmax lay within 50 to 70% and the DC50 was > 1000 nM. The like results for `COc1cc(C(=O)NCCCCCCCCCNCc2ccc(N3CCN(c4cc(-c5ccccc5O)nnc4N)CC3)cc2)ccc1NC(=O)[C@@H]1N[C@@H](CC(C)(C)C)[C@](C#N)(c2ccc(Cl)cc2F)[C@H]1c1cccc(Cl)c1F` [I-235] were, in that order, < 50% and > 1000 nM.

`COc1cc(C(=O)NCCCCCCCNCc2ccc(N3CCN(c4cc(-c5ccccc5O)nnc4N)CC3)cc2)ccc1NC(=O)[C@@H]1N[C@@H](CC(C)(C)C)[C@](C#N)(c2ccc(Cl)cc2F)[C@H]1c1cccc(Cl)c1F` [I-236]: the Dmax is < 50% and the half-maximal degradation concentration (DC50) was > 1000 nM. On to `COc1cc(C(=O)NCCCCCNCc2ccc(N3CCN(c4cc(-c5ccccc5O)nnc4N)CC3)cc2)ccc1NC(=O)[C@@H]1N[C@@H](CC(C)(C)C)[C@](C#N)(c2ccc(Cl)cc2F)[C@H]1c1cccc(Cl)c1F` [I-237], for which the maximal degradation (Dmax) is < 50% and the 50% degradation concentration (DC50) is > 1000 nM. Turning to `COc1cc(C(=O)NCCCNCc2ccc(N3CCN(c4cc(-c5ccccc5O)nnc4N)CC3)cc2)ccc1NC(=O)[C@@H]1N[C@@H](CC(C)(C)C)[C@](C#N)(c2ccc(Cl)cc2F)[C@H]1c1cccc(Cl)c1F` [I-238, (2R,3S,4R,5S)—N-(4-((3-((4-(4-(3-amino-6-(2-hydroxyphenyl)pyridazin-4-yl)piperazin-1-yl)benzyl)amino)propyl)carbamoyl)-2-methoxyphenyl)-3-(3-chloro-2-fluorophenyl)-4-(4-chloro-2-fluorophenyl)-4-cyano-5-neopentylpyrrolidine-2-carboxamide hydrochloride], the DC50 was > 1000 nM.
